Where “and” joins values, the source holds several entries; their conditions need not be identical. Equal values may be shown once. Read-outs that look alike come from different tables or passages of the source.
Tests used:
[1] = biological target: periplasmic domain of Rsc1598 (Ralstonia pseudosolanacearum, UniProt Q8XZ08); experiment: biochemical; format: binding, R. pseudosolanacearum OE1-1
hrpB expression [2] = format: cell-based, R. pseudosolanacearum; conditions: hrpB-lacZ resting cells, 25°C; for Induction of hrpB expression by organic acids: organic acid 0.1 mM, 20 h (Fig. 5); for Induction of hrpB expression by sugars: sugar 0.01%, 20 h (Fig. 6)
hrpB expression [3] = format: cell-based, R. pseudosolanacearum; conditions: malic acid 0.5 mM or sucrose 0.01%, quarter-strength M63 with 0.25% glucose, 28 °C, 5 h (Fig. S4)

periplasmic domain of Rsc1598, sequence (Q8XZ08 99-319 limits assumed): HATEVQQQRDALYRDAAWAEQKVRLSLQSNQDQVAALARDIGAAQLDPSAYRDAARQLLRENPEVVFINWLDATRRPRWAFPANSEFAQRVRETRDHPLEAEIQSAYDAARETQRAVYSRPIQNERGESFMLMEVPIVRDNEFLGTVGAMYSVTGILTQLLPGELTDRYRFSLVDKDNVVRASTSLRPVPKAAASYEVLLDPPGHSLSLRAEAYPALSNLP

Compound	Kd ([1]; Kd)	Induction of hrpB expression by organic acids (hrpB expression [2])	Induction of hrpB expression by sugars (hrpB expression [2])	further results
O=C(O)CC(O)(CC(=O)O)C(=O)O [Citric acid, citric acid]				Kd ([1]; Kd, Average of titrations, 25°C, pH 7.6): 155 ± 80.7 µM; Kd ([1]; Kd, ITC single titration, ligand 4 mM, 25°C, 50 mM sodium phosphate buffer pH 7.6, protein 40 µM): 137 µM; Kd ([1]; Kd, ITC single titration, ligand 5 mM, 25°C, 50 mM sodium phosphate buffer pH 7.6, protein 40 µM): 84.5 µM; Kd ([1]; Kd, ITC single titration, ligand 6 mM, 25°C, 50 mM sodium phosphate buffer pH 7.6, protein 40 µM): 243 µM
O=CO [Formic acid, formic acid]				Kd ([1]; ITC single titration, ligand 5 mM, 25°C, 50 mM sodium phosphate buffer pH 7.6, protein 40 µM, read-out: Kd): 71.5 µM; Kd ([1]; ITC single titration, ligand 6 mM, 25°C, 50 mM sodium phosphate buffer pH 7.6, protein 40 µM, read-out: Kd): 231 µM
O=C(O)/C=C/C(=O)O [Fumaric acid, fumaric acid]	47 µM and 56.3 µM			Kd ([1]; pH 7.6): smaller than that of malic acid
O=C(O)[C@@H]1CCC(O)=N1 [L-pyroglutamic acid]	41 µM and 43.2 µM and 194 µM	induced high levels of hrpB expression		
O=C(O)CC(O)C(=O)O (centres unmarked) [Malic acid, malic acid]	68.4 µM and 64.3 µM and 89 µM and 65 µM	induced high levels of hrpB expression		Induction of hrpB-lacZ expression in growing cells (hrpB expression [3]): induced hrpB expression
O=C(O)C(=O)O [Oxalic acid, oxalic acid]	229 µM and 151 µM			
O=C(O)CCC(=O)O [Succinic acid, succinic acid]	29.5 µM and 190 µM	induced high levels of hrpB expression		
O=C(CO)[C@@H](O)[C@H](O)[C@H](O)CO [fructose]			induced hrpB expression	
OC[C@H]1OC(O)[C@H](O)[C@@H](O)[C@@H]1O (some centres unmarked) [glucose]			induced hrpB expression	
OC[C@H]1O[C@@](CO)(O[C@H]2O[C@H](CO)[C@@H](O)[C@H](O)[C@H]2O)[C@@H](O)[C@@H]1O [sucrose]			the most effective sugar	Induction of hrpB-lacZ expression in growing cells (hrpB expression [3]): minimal induction
